The text below walks through data of publication PMC6072501, “N-tert-Prenylation of the indole ring improves the cytotoxicity of a short antagonist G analogue against small cell lung cancer” (MedChemComm, 2017).

Entries after “also recorded” stand apart in the source; their conditions may differ. *1 amine or outer side, *2 acyl side, *3 side chain or, on linkers, in order; H or OH if unused. Where a SMILES comes first, the peptide text is derived from it. Where no end group is shown, it is not given here. [ ]: non-standard residue; d: D form. X1 = C=CC(C)(C)n1cc(C[C@@H](N[*:1])C(=O)[*:2])c2ccccc21; NMeF = CN[C@@H](Cc1ccccc1)C(=O)O; dNMeF = CN[C@H](Cc1ccccc1)C(=O)O

The term IC50 denotes the concentration at which inhibition is half-maximal. One may read the fraction unbound as free concentration divided by total concentration. Higher therefore signals weak binding.

The subject of data set [1] is 3T3 Swiss Albino fibroblasts. It is filed as cell-based, mouse. To be noted: 48 h. An excerpt: (§1) Swiss Albino cell line 3T3 and two SCLC cell lines, DMS79 and H69, were selected for screening. 3T3 cells are fibroblast non-cancerous cells and were used to show the selectivity of the peptides for cancer treatment. The DMS79 cell line is a variant cell line model which is more resistant to chemotherapy as it originates from a patient with SCLC who had undergone treatment with cytoxan, vincristine, methotrexate and radiation therapy. On the other hand, H69 represents a chemo-naive SCLC cell line model. Cell viability was assessed by quantifying the reduction of resazurin dye to fluorescent resorufin.[28]–[31] H69 and DMS79 cells were seeded in 96-well plates at a density of 10 000 cells per well and maintained in 10% FBS/RPMI-1640 for 48 hours at 37 °C in a humidified air atmosphere of 5% CO2 in the presence of various peptide concentrations. […] The dye was then applied for 5 hours before measuring fluorescence. […]
(§2) Complete medium containing resazurin was used as background. […] Then resazurin (20 µl) was added to each well and kept at 37 °C in a humidified air atmosphere of 5% CO2 for 5 hours before fluorescence readings were recorded. […]
(§3) Assessment of apoptosis was carried out through a fluorescent technique by using Acridine Orange (AO) and Ethidium Bromide (EB) double staining. […] AO emits green fluorescence while EB emits red/orange fluorescence when […]

The test system of data set [2] is DMS79 small cell lung cancer cell line. The data set can be described thus: Cell viability assay (resazurin) on DMS79 cells. It is filed as cell-based, human. The note with it: 48 h.
Description: as §1, §2, §3
On the technique in general: Alamar Blue is a resazurin reagent that responds to reducing activity.

In data set [3] the test system is H69 small cell lung cancer cell line. The data set can be described thus: Cell viability assay (resazurin) on H69 cells. The data set is classed as cell-based, human. The note with it: 48 h.
Description: Swiss Albino cell line 3T3 and two SCLC cell lines, DMS79 and H69, were selected for screening. 3T3 cells are fibroblast non-cancerous cells and were used to show the selectivity of the peptides for cancer treatment. The DMS79 cell line is a variant cell line model which is more resistant to chemotherapy as it originates from a patient with SCLC who had undergone treatment with cytoxan, vincristine, methotrexate and radiation therapy. On the other hand, H69 represents a chemo-naive SCLC cell line model. Cell viability was assessed by quantifying the reduction of resazurin dye to fluorescent resorufin.[28]–[31] H69 and DMS79 cells were seeded in 96-well plates at a density of 10 000 cells per well and maintained in 10% FBS/RPMI-1640 for 48 hours at 37 °C in a humidified air atmosphere of 5% CO2 in the presence of various peptide concentrations. 3T3 cells were maintained under the same conditions but using 10% FBS/DMEM and a seeding density of 2500 cells per well. The dye was then applied for 5 hours before measuring fluorescence. […] The peptide thus had the potential to be tested in vivo subject to its biocompatibility with plasma.
Growth media, RPMI-1640 (with L-glutamine and NaHCO3) and DMEM, Dulbecco’s PBS (without calcium chloride and magnesium chloride), and Resazurin sodium salt were obtained from Sigma-Aldrich®. Human lung small cell carcinoma (H69 (ECACC 91091802)) and Mouse Swiss Albino embryo fibroblast (3T3 Swiss Albino (ECACC 85022108)) were from European Collection of Authenticated Cell Cultures (ECACC, Public Health England). […]
as §2, §3

For data set [4] the following is noted: phase I clinical trial, cited from earlier work. The source says:
Recognising the anti-proliferative action together with other preclinical evidence supporting broad-spectrum neuropeptide antagonism prompted a phase I clinical trial with SPG,[11] the results of which were encouraging. […] This, combined with low potency of the peptide, necessitated prolonged dosing by infusion to maintain therapeutic concentrati ...

The nature of data set [5]: Peptide stability in mouse plasma (HPLC). It is filed as in vitro ADME. The note with it: neat mouse plasma, 37 °C; for stability in mouse plasma over 3 hour incubation: 400 µg/ml, 0 and 3 h, RP-HPLC C8, 220 nm, triplicate. On the procedure: (§4) Plasma drug interaction affects the ability of the drug to distribute into tissues. To determine the extent of plasma binding to peptide 2, equilibrium dialysis (Cyprotex Ltd) was carried out. A 5 μM solution of peptide in PBS at pH 7.5 in 0.5% DMSO was mixed with neat human plasma in a total volume of 0.15 ml. After equilibrium at 37 °C, aliquots were taken from both sides of the membrane to determine the fraction of bound peptide. […] While in circulation, the peptide needs to be stable for a few hours to accumulate in tumours. It is commonly accepted that unmodified peptides are highly prone to protease digestion in plasma, leading to rapid degradation within a few minutes. Peptides 1 and 2 were subjected to stability testing in mouse plasma. The peptides dissolved in neat plasma (0.2 ml) were incubated at 37 °C. Aliquots (20 μl) were taken at 0 and 3 hour intervals in triplicate for analysis by HPLC. […] A plasma stability of 3 hours is considered as a sufficient time window to accumulate in tumour for efficacy studies.
4. Peptides stability in mouse plasma
Eppendorf® tubes were used for sample preparations. HPLC microvials were bought from Sigma-Aldrich®. HPLC analysis was performed using a C8 column (ACE 5 C8 – 250 X 4.6mm id) on a PerkinElmer Series 200 machine.
4.2. Peptides plasma stability
Peptides were added to neat mouse plasma at a concentration of 400 µg/ml and placed inside an incubator at 37 °C for 3 hours. Aliquots (20 µl) were taken at 0 and 3 hour periods. […] Then 80 µl of the supernatant was added to 0.1% TFA/H2O (120 µl) and transferred into a HPLC microvial to be analysed using the C8 column. […]
DMS79 cells were injected subcutaneously into ten CBA nude female mice (bred in house) at 5x10^6 cells/mouse in 0.1 ml of serum free RPMI-1640 medium containing 50% matrigel (Scientific Laboratory Supplies, Surrey, UK) as described in our recent publication (Reference 38). Tumours were measured and mice weighed 3 times a week throughout the study. Tumour volumes were calculated by multiplying the length, width and depth of tumors. […]

Data set [6] in a line: Plasma binding by equilibrium dialysis (Cyprotex Ltd). The data set is classed as in vitro ADME. The note with it: neat human plasma. On the procedure: as §4
Data set [7] is described as follows: Aqueous solubility (observation on dosing solutions). It is filed as physicochemical. To be noted: observation while preparing dosing solutions; higher concentration gave significant precipitation.
The test system of the next data set is NCI-H69 cells. The note with it: at 50 μM, serum-free media; cited from earlier work. The source says:
(§5) Several other related short chain SP antagonists have been investigated in the literature. […] Recently, Sarvi et al.[19] designed and synthesised a panel of eight substance P-peptide analogues ranging from a pentamer to 11-mer sequences. They compared their IC50 values, relative to SPG, using H345 and H69 cell lines. All an ...

Another data set relates to H69. The note with it: treatment for 72 hours; cited from earlier work. An excerpt:
Swiss Albino cell line 3T3 and two SCLC cell lines, DMS79 and H69, were selected for screening. 3T3 cells are fibroblast non-cancerous cells and were used to show the selectivity of the peptides for cancer treatment. The DMS79 cell line is a variant cell line model which is more resistant to chemotherapy as it originates from a patient with SCLC who had undergone treatment with cytoxan, vincristine, methotrexate and radiation therapy. On the other hand, H69 represents a chemo-naive SCLC cell line model. Cell viability was assessed by quantifying the reduction of resazurin dye to fluorescent re ...

The test system of the next data set is H345 xenografts. The note with it: subcutaneous injections, 25 mg kg^–1; cited from earlier work. On the procedure:
The relative tumour volume (RTV) as a percentage was calculated by dividing the tumour volumes on measured days by the tumour volume on day 0, before treatment. […] Excluding this single animal from the treated group, the tumour growth inhibition (TGI, Fig. 5) was calculated at day 7 as TGI (%) = (1 – T/C) × 100, where T indicates the mean tumour volume (mm^3) of the test group and C indicates the mean tumour volume of the vehicle-treated group. At day 7, the tumour volumes of pre ...

In another data set the test system is H345 and H69 cell lines. The note with it: cited from earlier work.
Description: as §5

[8] abbreviates: up to the concentration of 30 μM, resazurin.

`CSCC[C@H](NC(=O)[C@H](CC(C)C)NC(=O)[C@@H](Cc1c[nH]c2ccccc12)NC(=O)[C@H](Cc1ccccc1)N(C)C(=O)[C@@H](Cc1c[nH]c2ccccc12)NC(=O)[C@@H](N)CCCNC(=N)N)C(N)=O` [SPG, Arg–D-Trp–NMePhe–D-Trp–Leu–Met-NH2] (H-R[dW][NMeF][dW]LM-NH2): the IC50 in data set [1], in data set [2] and in [3] was > 30 µM in each case. Besides, the “inhibitory effect (cytotoxicity profile), DMS79” value in data set [2] (setting [8]) was “no inhibitory effect”. Besides, the “inhibitory effect (cytotoxicity profile), H69” value in [3] (setting [8]) is given as “no inhibitory effect”. In addition, in [4] (resulting in poor systemic bioavailability), the elimination from plasma entry was “quickly eliminated from plasma”. Moreover, the toxicity result in data set [4] is listed as “minimal toxicity”.

For the compound `CN[C@H](Cc1ccccc1)C(=O)N[C@H](Cc1c[nH]c2ccccc12)C(=O)N[C@@H](Cc1ccccc1)C(=O)N[C@H](Cc1c[nH]c2ccccc12)C(=O)N[C@@H](CC(C)C)C(N)=O` [peptide 1] (H-[dNMeF][dW]F[dW]L-NH2), the “stability in mouse plasma over 3 hour incubation” value in [5] is “remained largely intact”.

Turning to `C=CC(C)(C)n1cc(C[C@@H](NC(=O)[C@H](Cc2ccccc2)NC(=O)[C@@H](Cc2c[nH]c3ccccc23)NC(=O)[C@@H](Cc2ccccc2)NC)C(=O)N[C@@H](CC(C)C)C(N)=O)c2ccccc21` [peptide 2, NMeDPhe-DTrp-Phe-DTrp(N-tert-prenyl)-Leu-NH2] (H-[dNMeF][dW]F[X1]L-NH2), the “stability in mouse plasma over 3 hour incubation” value in data set [5] is listed as “remained largely intact; also recorded: a small percentage of degradation was noted”. In addition, in [5] (HPLC), the “time of resisting degradation by plasma” value is “at least 3 hours”. The same compound displayed a fraction unbound at 5 µM in data set [6] (5 μM peptide in PBS pH 7.5 with 0.5% DMSO, total volume 0.15 ml, 37 °C, mean) of 0.728 ± 0.124. For the same compound, the peptide unbound in [6] (5 μM, PBS pH 7.5, 37 °C) is 73%. Also, the “cytotoxicity enhancement of 2 over pentamer 1 (comparison of IC50 values)” value in data set [3] (depending on the cell line (DMS79 and H69)) was in the range of 5 to 10 fold. For the same compound, the aqueous solubility entry in data set [7] is listed as “limited aqueous solubility; also recorded: lower aqueous solubility than SPG”.

On to “D-MePhe–D-Trp–Phe–D-Trp–Leu-MPA [NY3521]”, for which the “inhibition of growth of NCI-H69 cells” value in the data set with NCI-H69 cells is recorded as “completely inhibited”.

In the case of “D-MePhe–D-Trp–Phe–D-Trp–LeuΨ(CH2NH)Leu-NH2 [NY3460]”, the “inhibition of growth of NCI-H69 cells” value in the data set on NCI-H69 cells is listed as “completely inhibited”.

Turning to [dR]PKP[dW]Q[dW]F[dW][dL]L [11-mer], the IC50 in the data set with H69 is 4.96 ± 0.64 µM. In addition, the tumour growth result in the data set with H345 xenografts is “significant reduction in tumour growth”. Further, in the data set on H345 and H69 cell lines, the “potency relative to SPG (IC50 values)” value is 3 to 4 fold.
